Results published in US8796245B2 (TetraPhase Pharmaceuticals, Inc., priority 2008, dated 2014).
In brackets after ≈: the same amount, converted by molar mass.

What was measured:
Assay type in all cases: cell-based
[1] = system: E. faecalis EF159 (tet resistant: tetM); experiment: Minimum inhibitory concentration assay, EF159; settings: Enterococcus faecalis, read-out: MICs EF159
Method: (§1) Frozen bacterial strains were thawed and subcultured onto Mueller Hinton Broth (MHB) or other appropriate media (Streptococcus requires blood and Haemophilus requires hemin and NAD). Following incubation overnight, the strains were subcultured onto Mueller Hinton Agar and again incubated overnight. […] Isolated colonies were selected to prepare a starting inoculum equivalent to a 0.5 McFarland standard. The starting inoculum was diluted 1:125 using MHB for further use. Test compounds were prepared by dilution in sterile water to a final concentration of 5.128 mg/mL. Antibiotics (stored frozen, thawed and used within 3 hours of thawing) and compounds were further diluted to the desired working concentrations.
(§2) The assays were run as follows. Fifty μL of MHB was added to wells 2-12 of a 96-well plate. One hundred […] of appropriately diluted antibiotics was added to well 1. Fifty μL of antibiotics was removed from well 1 and added to well 2 and the contents of well 2 mixed by pipetting up and down five times. Fifty μL of the mixture in well 2 was removed and added to well 3 and mixed as above. Serial dilutions were continued in the same manner through well 12. Fifty μL was removed from well 12 so that all contained 50 μL. Fifty μL of the working inoculum was then added to all test wells. A growth control well was prepared by adding 50 μL of working inoculum and 50 μL of MHB to an empty well. The plates were then incubated at 37° C. overnight, removed from the incubator and each well was read on a plate reading mirror. The lowest concentration (MIC) of test compound that inhibited the growth of the bacteria was recorded.

[2] = system: K. pneumoniae ATCC 13883 (KP109); experiment: Minimum inhibitory concentration assay, KP109; settings: Klebsiella pneumoniae, ATCC13883; K. pneumoniae ATCC 13883, wt; read-out: MICs KP109
Method: as §1, §2

[3] = system: K. pneumoniae KP153 (tet resistant: tetA efflux); experiment: microbe, parasite or virus in culture; settings: Klebsiella pneumoniae, read-out: MICs KP153
Method: as §1, §2

[4] = system: E. coli EC155 (tet resistant: tetA efflux); experiment: microbe, parasite or virus in culture; settings: Escherichia coli; E. coli tet resistant: tetA (efflux); read-out: MICs EC155
Method: as §1, §2

[5] = system: S. aureus SA158 (tet resistant: tetK efflux); experiment: microbe, parasite or virus in culture; settings: Staphylococcus aureus, read-out: MICs SA158
Method: as §1, §2

[6] = system: E. faecalis ATCC 29212 (EF103); experiment: Minimum inhibitory concentration assay, EF103; settings: Enterococcus faecalis, ATCC29212, read-out: MICs EF103
Method: as §1, §2

[7] = system: S. pneumoniae SP160 (tet resistant: tet M); experiment: Minimum inhibitory concentration assay, SP160; settings: Streptococcus pneumoniae, read-out: MICs SP160
Method: as §1, §2

[8] = system: A. baumanii ATCC 19606 (AB110); experiment: Minimum inhibitory concentration assay, AB110; settings: Acinetobacter baumannii, ATCC19606; A. baumanii ATCC 19606, wt; read-out: MICs AB110
Method: as §1, §2

[9] = system: S. aureus ATCC 29213 (SA101, MSSA); experiment: Minimum inhibitory concentration assay, SA101; settings: Staphylococcus aureus; S. aureus ATCC 29213, MSSA control; read-out: MICs SA101
Method: as §1, §2

[10] = system: S. aureus ATCC 13709 (SA100, MSSA, Smith strain); experiment: Minimum inhibitory concentration assay, SA100; settings: Staphylococcus aureus; S. aureus ATCC 13709, MSSA Smith strain; read-out: MICs SA100
Method: as §1, §2

[11] = system: E. coli ATCC 25922 (EC107); experiment: Minimum inhibitory concentration assay, EC107; settings: Escherichia coli, ATCC25922; E. coli ATCC 25922, wt; read-out: MICs EC107
Method: as §1, §2

[12] = system: S. pneumoniae ATCC 49619 (SP106); experiment: Minimum inhibitory concentration assay, SP106; settings: Streptococcus pneumoniae, ATCC49619; S. pneumoniae ATCC 49619, wt; read-out: MICs SP106
Method: as §1, §2

[13] = system: P. aeruginosa ATCC 27853 (PA111); experiment: Minimum inhibitory concentration assay, PA111; settings: Pseudomonas aeruginosa, ATCC27853; P. aeruginosa ATCC 27853, wt; read-out: MICs PA111
Method: as §1, §2

[14] = system: S. aureus SA161 (tet resistant: tet(M) ribosomal protection); experiment: Minimum inhibitory concentration assay, SA161; settings: Staphylococcus aureus, read-out: MICs SA161
Method: as §1, §2

[15] = system: E. cloacae ATCC 13047 (EC108); experiment: Minimum inhibitory concentration assay, EC108; settings: Enterobacter cloacae, ATCC13047; E. cloacae ATCC 13047, wt; read-out: MICs EC108
Method: as §1, §2

| Structure (SMILES) | MIC [1] [µg/mL] | MIC [2] [µg/mL] | MIC [3] [µg/mL] | MIC [4] [µg/mL] | MIC [5] [µg/mL] | MIC [6] [µg/mL] | MIC [7] [µg/mL] | MIC [8] [µg/mL] | MIC [9] [µg/mL] | MIC [10] [µg/mL] | MIC [11] [µg/mL] | MIC [12] [µg/mL] | MIC [13] [µg/mL] | MIC [14] [µg/mL] | MIC [15] [µg/mL] |
| --- | --- | --- | --- | --- | --- | --- | --- | --- | --- | --- | --- | --- | --- | --- | --- |
| CN(C)[C@@H]1C(O)=C(C(N)=O)C(=O)[C@@]2(O)C(O)=C3C(=O)c4c(O)c(NC(=O)CN5CCCCC5)cc(F)c4C[C@H]3C[C@@H]12 [Compound 43] | 0.5 (≈ 0.873 µM) | 2 (≈ 3.49 µM) | 4 (≈ 6.99 µM) | 4 (≈ 6.99 µM) | 0.5 (≈ 0.873 µM) | 0.25 (≈ 0.437 µM) | ≤ 0.0156 | 0.125 (≈ 0.218 µM) | 0.5 (≈ 0.873 µM) | 0.5 (≈ 0.873 µM) | 1 (≈ 1.75 µM) | ≤ 0.0156 | 32 (≈ 55.9 µM) | 1 (≈ 1.75 µM) | 4 (≈ 6.99 µM) |
| CN(C)[C@@H]1C(O)=C(C(N)=O)C(=O)[C@@]2(O)C(O)=C3C(=O)c4c(O)c(NC(=O)CN5CC[C@@H](O)C5)cc(F)c4C[C@H]3C[C@@H]12 [Compound 39] | 2 (≈ 3.48 µM) | 16 (≈ 27.8 µM) | > 32 | > 32 | 16 (≈ 27.8 µM) | 2 (≈ 3.48 µM) | 0.5 (≈ 0.87 µM) | 32 (≈ 55.7 µM) | 2 (≈ 3.48 µM) | 2 (≈ 3.48 µM) | 4 (≈ 6.96 µM) | 0.25 (≈ 0.435 µM) | > 32 | 2 (≈ 3.48 µM) | 16 (≈ 27.8 µM) |
| COCCNCC(=O)Nc1cc(F)c2c(c1O)C(=O)C1=C(O)[C@]3(O)C(=O)C(C(N)=O)=C(O)[C@@H](N(C)C)[C@@H]3C[C@@H]1C2 [Compound 21] | 1 (≈ 1.78 µM) | 2 (≈ 3.56 µM) | 8 (≈ 14.2 µM) | 16 (≈ 28.4 µM) | 4 (≈ 7.11 µM) | 0.125 (≈ 0.222 µM) | 0.0625 (≈ 0.111 µM) | 2 (≈ 3.56 µM) | 0.25 (≈ 0.444 µM) | 0.25 (≈ 0.444 µM) | 1 (≈ 1.78 µM) | ≤ 0.0156 | 16 (≈ 28.4 µM) | 0.5 (≈ 0.889 µM) | 4 (≈ 7.11 µM) |
| CN(C)[C@@H]1C(O)=C(C(N)=O)C(=O)[C@@]2(O)C(O)=C3C(=O)c4c(O)c(NC(=O)CNCC(C)(C)C)cc(F)c4C[C@H]3C[C@@H]12 [Compound 15] | 0.5 (≈ 0.87 µM) | 2 (≈ 3.48 µM) | 4 (≈ 6.96 µM) | 4 (≈ 6.96 µM) | 0.25 (≈ 0.435 µM) | 0.5 (≈ 0.87 µM) | 0.016 (≈ 0.0278 µM) | 0.125 (≈ 0.218 µM) | 0.5 (≈ 0.87 µM) | 0.5 (≈ 0.87 µM) | 1 (≈ 1.74 µM) | 0.016 (≈ 0.0278 µM) | 16 (≈ 27.8 µM) | 0.5 (≈ 0.87 µM) | 4 (≈ 6.96 µM) |
| COC[C@@H]1CCCN1CC(=O)Nc1cc(F)c2c(c1O)C(=O)C1=C(O)[C@]3(O)C(=O)C(C(N)=O)=C(O)[C@@H](N(C)C)[C@@H]3C[C@@H]1C2 [Compound 41] | 2 (≈ 3.32 µM) | 8 (≈ 13.3 µM) | 16 (≈ 26.6 µM) | 16 (≈ 26.6 µM) | 1 (≈ 1.66 µM) | 1 (≈ 1.66 µM) | 0.125 (≈ 0.207 µM) | 0.5 (≈ 0.83 µM) | 1 (≈ 1.66 µM) | 1 (≈ 1.66 µM) | 4 (≈ 6.64 µM) | 0.125 (≈ 0.207 µM) | > 32 | 2 (≈ 3.32 µM) | 16 (≈ 26.6 µM) |
| CN(CC(=O)Nc1cc(F)c2c(c1O)C(=O)C1=C(O)[C@]3(O)C(=O)C(C(N)=O)=C(O)[C@@H](N(C)C)[C@@H]3C[C@@H]1C2)C1CCCC1 [Compound 31] | 1 (≈ 1.7 µM) | 4 (≈ 6.82 µM) | 8 (≈ 13.6 µM) | 8 (≈ 13.6 µM) | 1 (≈ 1.7 µM) | 0.5 (≈ 0.852 µM) | 0.25 (≈ 0.426 µM) | 0.5 (≈ 0.852 µM) | 1 (≈ 1.7 µM) | 2 (≈ 3.41 µM) | 2 (≈ 3.41 µM) | 0.25 (≈ 0.426 µM) | > 32 | 2 (≈ 3.41 µM) | 8 (≈ 13.6 µM) |
